# ± gives the standard deviation of the averaged measurements.
# Experiments:
# Conditions in all cases: 72 h
# Caco-2 [1] = experiment: cell viability relative to DMSO; higher = less toxic
# Calu-3 [2] = experiment: as above
# HepG2 [3] = experiment: as above
# U2OS [4] = experiment: as above
# Vero E6 [5] = experiment: as above
# Caco-2 [6] = experiment: relative viability EC50 (midpoint between 100% and the lowest measured viability); higher = less toxic
# Calu-3 [7] = experiment: as above
# HepG2 [8] = experiment: as above
# U2OS [9] = experiment: as above
# Vero E6 [10] = experiment: as above
# Caco-2 [11] = experiment: drug sensitivity score (DSS) for viability; higher = more toxic; extreme values may be limits of the assay
# Calu-3 [12] = experiment: as above
# HepG2 [13] = experiment: as above
# U2OS [14] = experiment: as above
# Vero E6 [15] = experiment: as above
SMILES,cell viability (Caco-2 [1]; 1 nM) [%],cell viability (Caco-2 [1]; 10 nM) [%],cell viability (Caco-2 [1]; 100 nM) [%],cell viability (Caco-2 [1]; 1000 nM) [%],cell viability (Caco-2 [1]; 10000 nM) [%],cell viability (Calu-3 [2]; 1 nM) [%],cell viability (Calu-3 [2]; 10 nM) [%],cell viability (Calu-3 [2]; 100 nM) [%],cell viability (Calu-3 [2]; 1000 nM) [%],cell viability (Calu-3 [2]; 10000 nM) [%],cell viability (HepG2 [3]; 1 nM) [%],cell viability (HepG2 [3]; 10 nM) [%],cell viability (HepG2 [3]; 100 nM) [%],cell viability (HepG2 [3]; 1000 nM) [%],cell viability (HepG2 [3]; 10000 nM) [%],cell viability (U2OS [4]; 1 nM) [%],cell viability (U2OS [4]; 10 nM) [%],cell viability (U2OS [4]; 100 nM) [%],cell viability (U2OS [4]; 1000 nM) [%],cell viability (U2OS [4]; 10000 nM) [%],cell viability (Vero E6 [5]; 1 nM) [%],cell viability (Vero E6 [5]; 10 nM) [%],cell viability (Vero E6 [5]; 100 nM) [%],cell viability (Vero E6 [5]; 1000 nM) [%],cell viability (Vero E6 [5]; 10000 nM) [%],relative viability EC50 (Caco-2 [6]) [µM],relative viability EC50 (Calu-3 [7]) [µM],relative viability EC50 (HepG2 [8]) [µM],relative viability EC50 (U2OS [9]) [µM],relative viability EC50 (Vero E6 [10]) [µM],drug sensitivity score (Caco-2 [11]),drug sensitivity score (Calu-3 [12]),drug sensitivity score (HepG2 [13]),drug sensitivity score (U2OS [14]),drug sensitivity score (Vero E6 [15])
CC(=O)NCCCOc1ccc(C(=O)N2CCC(N3C(=O)CCc4ccccc43)CC2)cc1,104,90.1,76,104,88.6,81,84.4,77.8,86.9,79,113,92.3,116,112,107,98,100,97.3,101,95.5,105,92.6,95.6,104,106,> 10,> 10,> 10,> 10,> 10,0,0,0,0,0
CC(C)CC(=O)Nc1n[nH]c2c1CN(C(=O)C1CCN(C)CC1)C2(C)C,99.1,98.9,85.6,76.9,51,98.7,90.7,93.6,89.6,37.6,103,115,102,51.9,9.7,101,102,94,68.7,15,103,106,104,100,85.7,,1.89,0.95,1.32,> 10,5.8,5.2,10.9,8.5,0.2
CCCCOc1ccc(-c2cncc(C(=O)NCc3cccnc3N3CCOCC3)c2)cc1Cl,92.8,104,94.7,102,74.8,107,96.4,92.9,104,90.4,99.7,93,113,106,106,104,103,99.5,106,92.8,102,102,100,96.5,94.4,,> 10,> 10,> 10,> 10,0.8,0,0,0,0
CC[C@@H](C)N(C)C(=O)c1cc2ccccc2c(-c2ccccc2Cl)n1,106,104,95.6,96.4,98.6,108,106,93.8,95.8,99.2,92.5,113,89.6,100,107,102,98.3,102,97.3,103,99.4,105,100,102,107,> 10,> 10,> 10,> 10,> 10,0,0,0,0,0
CNCCn1c(=O)c2cc(OC)c(OC)cc2c2cnc3cc4c(cc3c21)OCO4,95.5,95.9,89.4,58,9,95.8,92.9,84.8,46.3,30.2,112,92.1,56.8,18.6,-0.3,96.1,99.5,97.3,78.9,25.9,97.6,94.7,97.9,58.6,24.6,1.04,0.313,0.149,1.44,0.891,10,11.8,20.8,7.3,9.1
COc1ccc(C2(O)CCC(N3CC[C@@H](NC(=O)CNC(=O)c4cccc(C(F)(F)F)c4)C3)CC2)cn1 (stereo partly drawn),100 ± 2.3,95.3 ± 5.2,95.3 ± 2.9,100 ± 2.4,94.8 ± 5.4,102 ± 13,92.8 ± 6.5,96.3 ± 4.9,97.7 ± 4.2,95.2 ± 9.2,94.8 ± 12,97.7 ± 1.6,101 ± 8.1,94.8 ± 8.5,102 ± 8.6,99.7 ± 2,98.5 ± 1.3,98.6 ± 2.7,99.4 ± 0.14,100 ± 4.2,97.7 ± 1.4,97.8 ± 5.8,97.7 ± 1.3,95.8 ± 1.9,97.6 ± 3.8,> 10,> 10,> 10,> 10,> 10,0,0,0,0,0
C[S+]([O-])c1ccc(-c2nc(-c3ccc(F)cc3)c(-c3ccncc3)[nH]2)cc1 (stereo not drawn),111,97,103,95.1,84,106,101,98.2,98.4,101,104,105,96.1,107,91.8,104,102,102,95.5,96.9,99,112,97.2,110,92.3,> 10,> 10,> 10,> 10,> 10,0.8,0,0,0,0
Cc1[nH]c2ccc(Cl)cc2c1C1=CCNCC1,95.9,102,99.4,97,81.7,109,106,99.8,103,91.5,93.2,94.7,97.1,95.3,89.9,96.5,103,95.4,96.5,88.9,98.1,96.4,99.6,96,91.7,> 10,> 10,> 10,> 10,> 10,0.8,0,0,0,0
Cc1c(C(=O)NC2CCCCC2)sc2nc3ccc(N)cc3n12,105,97,101,103,104,93.7,109,83.3,97.4,103,94.1,101,92.8,104,107,102,94.6,96.4,98.1,102,99.4,103,96.9,103,107,> 10,> 10,> 10,> 10,> 10,0,0,0,0,0
Cc1cc(C)c2c(N)c(C(=O)NCc3ccc(Cl)cc3)sc2n1,95.7,91.5,107,89.5,108,101,92.2,97,108,96.3,102,105,101,91.6,98.5,98.9,103,99.7,102,105,101,91.8,108,90.4,105,> 10,> 10,> 10,> 10,> 10,0,0,0,0,0
Cc1ccc(C(=O)N(CCCN)[C@@H](c2oc3cc(Cl)ccc3c(=O)c2Cc2ccccc2)C(C)C)cc1,98.9,78.2,62,66.1,5.6,98.2,91.5,89.1,90,0.4,102,45.1,36.9,34.4,0.1,100,74.6,52.7,52,8.2,99.4,87.5,44.7,42,-0.2,0.469,2.33,0.0342,0.165,0.169,14.3,7.2,27.1,18.1,19.7
Cc1cnc(Nc2ccc(N3CCN(C)CC3)cc2)nc1Nc1cccc(S(=O)(=O)NC(C)(C)C)c1,96.3,101,98.4,64.3,9.6,93,95.1,92.6,86.1,13.8,96.2,105,97.2,57.9,28.9,92.1,93.7,100,75.3,0.5,93,105,94.9,90.9,0.2,1.2,1.92,0.8,1.55,2.41,9.7,7.1,9,9.3,7
CC(C)Cc1ccc([C@@H](C)C(=O)NCCO)cc1 (racemic) [mabuprofen],102,96.4,104,94,96.1,106,103,105,99.4,117,92.7,105,90.8,95.3,96.4,105,98.9,103,100,100,102,100,101,97.9,94.7,> 10,> 10,> 10,> 10,> 10,0,0,0,0,0
Ic1cc(-c2ccccc2)ncn1 [4-iodo-6-phenylpyrimidine],93.8,101,104,97.5,98,100,105,105,87.2,104,100,107,96.8,105,98.8,102,97.2,102,99.1,102,105,102,97.7,105,95.5,> 10,> 10,> 10,> 10,> 10,0,0,0,0,0
